# Patent publication US9140688B2, “Sperm staining and sorting methods” (INGURAN, LLC, priority 2011, dated 2015)
# Tests used:
# [1] = cited from earlier work; for Expected Absorption Maxima: solvent water, shorter-wavelength local maximum
# [2] = test system: X- and Y-chromosome bearing bovine sperm stained with Hoechst 33342; assay: Split quality: height of peak divided by height of valley (PV), flow cytometry of stained bovine sperm; format: cell-based; settings: for PV: Ex 9, Bull 3, Hoechst 60 μM; for peak to valley ratio, average 8 bulls: Ex 10, Hoechst 64 μM
smiles,measurement,setting,value
CCN(Cc1cccc(S(=O)(=O)[O-])c1)c1ccc(C(=C2C=CC(=[N+](CC)Cc3cccc(S(=O)(=O)[O-])c3)C=C2)c2ccccc2S(=O)(=O)[O-])cc1.[Na+].[Na+] [Blue 1],Expected Absorption Maxima,[1],627 nm
O=C1/C(=C2\Nc3ccc(S(=O)(=O)[O-])cc3C2=O)Nc2ccc(S(=O)(=O)[O-])cc21.[Na+].[Na+] [Blue 2],Expected Absorption Maxima,[1],610 nm
CCN(Cc1cccc(S(=O)(=O)[O-])c1)c1ccc(C(=C2C=CC(=[N+](CC)Cc3cccc(S(=O)(=O)[O-])c3)C=C2)c2ccc(O)cc2S(=O)(=O)[O-])cc1.[Na+].[Na+] [Green 3],Expected Absorption Maxima,[1],625 nm
"O=C(O)c1ccccc1-c1c2cc(I)c(=O)c(I)c-2oc2c(I)c(O)c(I)cc12 [Red 3, 2-(6-Hydroxy-2,4,5,7-tetraiodo-3-oxo-xanthen-9-yl)benzoic acid]",PV,"[2]; R3 25 μM with Y6 50 μM, first Y6 series",1.45
same,PV,[2]; R3 50 μM with R40 50 μM,1.63
same,PV,"[2]; R3 50 μM with Y6 50 μM, second Y6 series",1.33
same,PV,[2]; R3 100 μM with R40 50 μM,1.65
same,PV,"[2]; R3 100 μM with Y6 50 μM, first Y6 series",1.38
same,PV,"[2]; R3 100 μM with Y6 50 μM, second Y6 series",1.55
same,PV,"[2]; R3 150 μM with Y6 50 μM, first Y6 series",1.41
same,PV,[2]; R3 200 μM with R40 50 μM,1.78
same,PV,[2]; R3 300 μM with R40 50 μM,2.15
same,PV,"[2]; R3 300 μM with Y6 50 μM, first Y6 series",1.66
same,PV,"[2]; R3 300 μM with Y6 50 μM, second Y6 series",1.68
same,PV,"[2]; R3 600 μM with Y6 50 μM, first Y6 series",1.31
same,PV,"[2]; R3 600 μM with Y6 50 μM, second Y6 series",1.42
same,"peak to valley ratio, average 8 bulls","[2]; split enhancing dye 15 μM, 30 Min incubation, Y6 25 μM in second buffer",1.05
same,"peak to valley ratio, average 8 bulls","[2]; split enhancing dye 15 μM, 45 Min, Y6 25 μM",1.43
same,"peak to valley ratio, average 8 bulls","[2]; split enhancing dye 15 μM, 60 Min, Y6 25 μM",1.78
same,"peak to valley ratio, average 8 bulls","[2]; split enhancing dye 15 μM, 75 Min, Y6 25 μM",1.79
same,"peak to valley ratio, average 8 bulls","[2]; split enhancing dye 45 μM, 30 Min, Y6 25 μM",1.05
same,"peak to valley ratio, average 8 bulls","[2]; split enhancing dye 45 μM, 45 Min, Y6 25 μM",1.36
same,"peak to valley ratio, average 8 bulls","[2]; split enhancing dye 45 μM, 60 Min, Y6 25 μM",1.58
same,"peak to valley ratio, average 8 bulls","[2]; split enhancing dye 45 μM, 75 Min, Y6 25 μM",1.60
same,"peak to valley ratio, average 8 bulls","[2]; split enhancing dye 125 μM, 30 Min, Y6 25 μM",1.00
same,"peak to valley ratio, average 8 bulls","[2]; split enhancing dye 125 μM, 45 Min, Y6 25 μM",1.02
same,"peak to valley ratio, average 8 bulls","[2]; split enhancing dye 125 μM, 60 Min, Y6 25 μM",1.10
same,"peak to valley ratio, average 8 bulls","[2]; split enhancing dye 125 μM, 75 Min, Y6 25 μM",1.32
same,"(local) maximum absorption wavelength, as believed",[1]; phenol red in the red molecular form,about 530 nm
same,Expected Absorption Maxima,[1],530 nm
